In US20130095059A1, “INHALED NO DONOR KMUPS DERIVATIVE PREVENTING ALLERGIC PULMONARY VASCULAR AND BRONCHIAL INFLAMMATION VIA SUPPRESSED CYTOKINES, INOS AND INFLAMMATORY CELL COUNTS IN ASTHMA MODEL” (priority 2007, published 2013):

Key:
AKT = assay: 5-HT-induced AKT phosphorylation in PASMCs; format: cell-based, Wistar rats; conditions: 1-100 μM, 24 h pre-incubation
Experimental: PASMCs were stimulated with 5-HT or not, as indicated. Cells were treated with KMUP-1 for 24 h before 5-HT stimulation. Whole lysates were collected and resolved by SDS-PAGE as previously described. Primary antibodies were anti-β-actin at: 1:10,000 dilution and anti-RhoA, anti-ROCK, antiphospho-ERK1/2, anti-phospho-AKT, anti-ERK1/2, anti-AKT, anti-5HTT, anti-5-HT2B and anti-eNOS at 1:1000. All blots were incubated with antibodies at 4° C. overnight. After being washed, the appropriate secondary antibodies were added at a dilution of 1:1000 for 1 h at room temperature. After extensive washing, blots were developed with a Super Signal enhanced chemiluminescence kit (Biorad, CA, USA) and visualized on Kodak AR film.
The expression of RhoA/ROCK and phosphorylation of ERK1/2 and AKT kinase in PASMCs were assessed by incubating the PASMCs with 5-HT (10 μM) for 15 min (peak time for RhoA/ROCK, ERK1/2 and AKT phosphorylation) and 5-HTT for 10 min (peak time for 5-HTT) after KMUP-1 (1-100 μM) was added to the culture of PASMCs for 24 h.

inflammatory cells = assay: Ovalbumine model, histology of peri-vascular and peri-bronchiolar regions; format: in vivo, BALB/c mice; conditions: ovalbumine-exposed mice; nebulization 5 mM 30 min
Experimental: (§1) In this long-term experiment, 6-8 week old BALB/c female mice were sensitized on days 1 and 8 by intra-peritoneal injection (i.p.) of ovalbumine (10 μg) (Sigma-Aldrich, Schnelldorf, Germany) adsorbed to 2 mg aluminum hydroxide (AlumInject; Perbio, Erembodegem, Belgium). Mice were divided into three groups. In Group 1, a control group was only exposed to saline nebulization by aerosol. The other 2 groups were subjected to ovalbumine (1%) nebulization. Before each challenge with ovalbumine, mice were either exposed to saline nebulization (Group 2) or KMUP-1 nebulization (5 mM) for 30 min by aerosol (Group 3).
Sections of fixed embedded tissues were cut at […], placed on glass slides, deparaffinized and stained sequentially with hematoxylin 2 and eosin-Y (MUTO PURE CHEMICALS CO., LTD., Tokyo, Japan) (Tournoy K G, et al., 2000). To confirm the relationship between vascular inflammation/remodeling and expression of proteins, lung tissue sections from ovalbumine experiments were prepared and stained with hematoxylin-eosin as previously described (Hongo M, et al., 2000). Microphotography analysis of blood vessels and bronchioles, focusing on peri-bronchial and peri-vascular region in the lung sections, was performed using a color digital camera mounted on a computer-interfaced light microscope (Eclipse TE2000-S microscope, Nikon, Tokyo, Japan).

PASMCs = PASMCs [Ca2+]i measurement (Fura-2/AM); format: cell-based, Wistar rats
Experimental: Wistar rats were anesthetized with an overdose of sodium pentobarbital (60 mg/kg) and the skin was sterilized with 75% alcohol. The chest was opened and the heart and lung were removed. The organs were rinsed several times in PBS. The pulmonary artery were segregated in a sterile manner. The outer sphere was peeled and the microtubule was snipped visually, and endothecia were shaved lightly 2-3 times in order to remove endothelial cells. The tunica media was prepared into scraps (1 mm^3) in DMEM (Dulbecco's modified Eagle's medium). PASMCs were cultured in DMEM containing 10% fetal bovine serum (5% CO2 at 37° C.). The culture medium was changed every 3 days and cells were subcultured until confluence. Primary cultures of 2-4 passages were used in the experiments. Cells were examined by immunofluorescence staining of α-actin to confirm the purity of PASMCs.
The measurement of [Ca^2+]i in PASMCs was performed using a spectrofluorophotometer as previously reported. PASMCs, cultured for 2-4 passages and re-suspended by trypsin, were loaded with Fura-2/AM for the measurement of [Ca^2+]i changes in cells within the cuvette by spectrofluorophotometer (Shimadzu, RF-5301PC, Shimadzu, Japan). KMUP-1 was applied 5 min before application of 5-HT (10 μM).

IL-13 = assay: Ovalbumine model, plasma IL-13 (ELISA); format: in vivo, mice; conditions: mice sensitized and challenged by ovalbumine
Experimental: as §1

MMP-9 = assay: Short term nebulization, MMP-9 expression in lung tissues; format: in vivo, BALB/c mice; conditions: nebulization 1.0˜2.5 mM, 30 mins, without ovalbumine sensitization
Experimental: […] […] […] Three different experiments were performed on cohorts of 7˜14 mice per experimental condition.
The lung tissues were homogenized, washed with PBS and incubated in lysis buffer in addition to a protease inhibitor cocktail (Sigma, St. Louis, Mo.) to obtain extracts of lung proteins. A Western blot analysis was performed as described previously (Wu B N, et al., 2006). The samples were loaded to 10% SDS-PAGE gels and were separated at 120 V for 90 min. The blots were incubated with anti-eNOS antibody diluted at a ratio of 1:500, anti-sGCα1 antibody diluted at a ratio of 1:2000, anti-PKG antibody diluted at a ratio of 1:500, anti-VCAM-1 antibody diluted at a ratio of 1:500, anti-ICAM-1 antibody diluted at a ratio of 1:500, and anti-MMP-9 antibody diluted at a ratio of 1:600 overnight at 4° C. The membranes were stripped and re-blotted with anti-actin antibody (Sigma, St. Louis, Mo.) to verify the equal loading of protein in each lane.

PCNA = assay: PASMCs proliferation (PCNA) in MCT-treated lung tissues; format: in vivo, rats; conditions: day 21 after MCT injection
Experimental: We evaluated proliferating cell nuclear antigen (PCNA) to assess PASMCs proliferation in rats treated with MCT alone or with KMUP-1. Lung tissue sections were de-paraffinized in xylene and then treated with a graded series of alcohol washes, rehydrated in PBS (pH 7.5), and incubated with target retrieval solution (DAKO Co, Tokyo, Japan) in a water bath at 90° C. for 20 min. Endogenous peroxidase activity was blocked with H2O2 in PBS (3%, vol/vol) for 5 min. Slides were then washed in PBS, incubated for 30 min in a protein blocking solution, and incubated for 30 min with anti-PCNA mouse monoclonal antibody (PC-10, 1:200, Dako). Antibodies were washed off, and the slides were processed with an […] LSAB and system horseradish peroxidase detection kit (DAKO Co, Tokyo, Japan). Brown color was generated with a DAB substrate, and nuclei were counter-stained with hematoxylin.

Cn1c(=O)c2c(ncn2CCN2CCN(c3ccccc3Cl)CC2)n(C)c1=O [KMUP-1, 7-[2-[4-(2-chlorophenyl)piperazinyl]ethyl]-1,3-dimethylxanthine]
5-HT-stimulated AKT phosphorylation (AKT): concentration-dependently reduced
inflammatory cells in the peri-vascular and peri-bronchiolar regions (inflammatory cells): marked reductions
inhibition of sustained [Ca^2+]i response to 5-HT (PASMCs; 10 μM): 65%
5-HT-induced elevation of [Ca^2+]i (PASMCs; 0.1-100 μM, 5-HT 10 μM): concentration-dependently inhibited
IL-13 levels in the plasma (IL-13): inhibited
MMP-9 expression in mice lung tissues (MMP-9): decreased
number of PCNA-positive cells in pulmonary artery walls (PCNA): markedly lower
